The values that follow come from patent publication US20230085307A1, “PYRIDAZINONE COMPOUND AND HERBICIDE” (NISSAN CHEMICAL CORPORATION, priority 2019, published 2023).

One experiment concerns southern crabgrass. As to the kind of experiment: Test Example 5: herbicidal effect by foliage application, plastic box (Table 20, symbol F). It counts as in vivo, southern crabgrass (Digitaria ciliaris). To be noted: foliage application. The essentials: (§1)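 Plants sown in sterilized diluvial soil and grown 14 days in a greenhouse at 25° C to 30° C, then sprayed on the foliage with the compound's emulsion diluted in water to a predetermined herbicide amount. Injury to weeds and crops scored three weeks after application on a visual rating scale.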

The test system of another experiment is chickweed. Description: Test Example 4: herbicidal effect by soil treatment (Table 19, symbol P). The following applies: amount of applied herbicide 320 g/ha. It counts as in vivo, common chickweed (Stellaria media). The essentials:
(§2)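 Seeds were sown in sterilized diluvial soil and covered with about 1.5 cm of soil. An emulsion formulation diluted with water to a predetermined herbicide amount was sprayed evenly onto the soil surface. Plants grew in a greenhouse at 25° C. to 30° C., and the effect was scored three weeks after application using criteria from an earlier test.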

A further experiment concerns velvetleaf. As to the kind of experiment: Test Example 5: herbicidal effect by foliage application, plastic box (Table 20, symbol M). To be noted: foliage application. It counts as in vivo, velvetleaf (Abutilon theophrasti). A digest of the protocol:
as §1

For the next experiment, the system named is windgrass. As to the kind of experiment: Test Example 4: herbicidal effect by soil treatment (Table 19, symbol L). It counts as in vivo, windgrass (Apera spica-venti). The following applies: amount of applied herbicide 320 g/ha. The essentials: as §2
The next experiment has as its system green foxtail. As to the kind of experiment: Test Example 5: herbicidal effect by foliage application, plastic box (Table 20, symbol G). To be noted: foliage application. It counts as in vivo, green foxtail (Setaria viridis). The essentials:
as §1

For a further experiment, the system named is Chinese sprangletop. Description: Test Example 3: herbicidal effect by foliage application, Wagner pot (Table 18, symbol D). It counts as in vivo, chinese sprangletop (Leptochloa chinensis). A digest of the protocol:
(§3)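 Plants were sown in alluvial soil held under 0.1–0.5 cm standing water and grown 14 days in a greenhouse at 25–30 °C. An emulsifiable formulation, water-diluted to the set dose, was then sprayed onto the foliage, and effects were scored three weeks later using previously defined criteria.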

For experiment [1], the system named is lambsquarters. As to the kind of experiment: Test Example 5: herbicidal effect by foliage application, plastic box (Table 20, symbol O). The following applies: foliage application. It counts as in vivo, lambsquarters (Chenopodium album). A digest of the protocol:
as §1

Experiment [2] deals with lambsquarters. Description: Test Example 4: herbicidal effect by soil treatment (Table 19, symbol O). It counts as in vivo, lambsquarters (Chenopodium album). To be noted: amount of applied herbicide 320 g/ha. The essentials: as §2
A further experiment deals with wild oat. As to the kind of experiment: Test Example 5: herbicidal effect by foliage application, plastic box (Table 20, symbol I). It counts as in vivo, wild oat (Avena fatua). The following applies: foliage application. The essentials:
as §1

A further experiment relates to late watergrass. As to the kind of experiment: Test Example 1: herbicidal activity, application before weed generation under submerged conditions (Table 16, symbol A). The following applies: 320 g/ha applied herbicide. It counts as in vivo, late watergrass (Echinochloa oryzicola). The essentials:
(§4)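 Emulsion formulation, water-diluted to set dose, was put onto the flooded surface (4 cm depth, alluvial soil) the same day weeds were sown and 2.5-leaf rice transplanted. After 3 weeks at 25-30 °C under glass, each species was rated 0 (≤5% kill) to 5 (≥90% kill).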

The test system of a further experiment is barnyard grass. As to the kind of experiment: Test Example 3: herbicidal effect by foliage application, Wagner pot (Table 18, symbol H). It counts as in vivo, barnyard grass (Echinochloa crus-galli). A digest of the protocol: as §3
The subject of another experiment is blackgrass. As to the kind of experiment: Test Example 5: herbicidal effect by foliage application, plastic box (Table 20, symbol J). It counts as in vivo, blackgrass (Alopecurus myosuroides). To be noted: foliage application. The essentials: as §1
Experiment [3] concerns Italian ryegrass. As to the kind of experiment: Test Example 4: herbicidal effect by soil treatment (Table 19, symbol K). It counts as in vivo, Italian ryegrass (Lolium multiflorum). To be noted: amount of applied herbicide 320 g/ha. A digest of the protocol: as §2
The test system of experiment [4] is Italian ryegrass. As to the kind of experiment: Test Example 5: herbicidal effect by foliage application, plastic box (Table 20, symbol K). To be noted: foliage application. It counts as in vivo, Italian ryegrass (Lolium multiflorum). A digest of the protocol: as §1
For the next experiment, the system named is rice flat sedge. As to the kind of experiment: Test Example 3: herbicidal effect by foliage application, Wagner pot (Table 18, symbol E). It counts as in vivo, rice flat sedge (Cyperus iria). A digest of the protocol: as §3
The subject of a further experiment is oval-leafed pondweed. Description: Test Example 1: herbicidal activity, application before weed generation under submerged conditions (Table 16, symbol C). It counts as in vivo, oval-leafed pondweed (Monochoria vaginalis). To be noted: 320 g/ha applied herbicide. The essentials: as §4
Another experiment has as its system Japanese bulrush. Description: Test Example 1: herbicidal activity, application before weed generation under submerged conditions (Table 16, symbol B). It counts as in vivo, Japanese bulrush (Schoenoplectus juncoides). To be noted: 320 g/ha applied herbicide. The essentials:
as §4

[5] abbreviates: 320 g/ha, three weeks after application.
Where [6] appears, read: AAH 320 g/ha, evaluated three weeks after application.
Setting [7] is: amount of applied herbicide 320 g/ha.

Regarding `Cc1nn(C)c(=O)c(-c2c(-c3ccc4c(c3)OCO4)sc3ccccc23)c1O` [1-087], in the experiment on southern crabgrass (setting [5]), the “herbicidal effect grade, F: southern crabgrass” value was 5 (Herbicidal rate of 90% or more (almost completely withered)). Also, the “herbicidal effect rating, P: chickweed” value in the experiment with chickweed is on record as 5 (Herbicidal rate of 90% or more (almost completely withered)). The “herbicidal effect grade, M: velvetleaf” value in the experiment on velvetleaf (setting [5]) is 4 (Herbicidal rate of 70% or more and less than 90%). In the experiment with windgrass, the “herbicidal effect rating, L: windgrass” value is listed as 0 (Herbicidal rate of 5% or less (almost no effect)). The “herbicidal effect grade, G: green foxtail” value in the experiment with green foxtail (setting [5]) is reported as 5 (Herbicidal rate of 90% or more (almost completely withered)). Also, the “herbicidal effect on D (Chinese sprangletop), rating 0-5” value in the experiment with Chinese sprangletop (320 g/ha) is 3 (Herbicidal rate of 40% or more and less than 70%). Also, in the experiment with lambsquarters [1] (setting [5]), the “herbicidal effect grade, O: lambsquarters” value is 3 (Herbicidal rate of 40% or more and less than 70%). Also, the “herbicidal effect rating, O: lambsquarters” value in the experiment with lambsquarters [2] is given as 5 (Herbicidal rate of 90% or more (almost completely withered)). For the same compound, the “herbicidal effect grade, I: wild oat” value in the experiment with wild oat (setting [5]) is 1 (Herbicidal rate of 5% or more and less than 20%). Besides, the “Herbicidal effect on A: late watergrass (grade 0-5)” value in the experiment with late watergrass is 3 (Herbicidal rate of 40% or more and less than 70%). In the experiment on barnyard grass (320 g/ha), the “herbicidal effect on H (barnyard grass), rating 0-5” value was 4 (Herbicidal rate of 70% or more and less than 90%). Further, the “herbicidal effect grade, J: blackgrass” value in the experiment on blackgrass (setting [5]) is 3 (Herbicidal rate of 40% or more and less than 70%). Besides, the “herbicidal effect rating, K: Italian ryegrass” value in the experiment on Italian ryegrass [3] was 3 (Herbicidal rate of 40% or more and less than 70%). The “herbicidal effect grade, K: Italian ryegrass” value with Italian ryegrass [4] (setting [5]) is 3 (Herbicidal rate of 40% or more and less than 70%). In addition, the “herbicidal effect on E (rice flat sedge), rating 0-5” value with rice flat sedge (320 g/ha) is given as 5 (Herbicidal rate of 90% or more (almost completely withered)). Also, the “Herbicidal effect on C: oval-leafed pondweed (grade 0-5)” value in the experiment with oval-leafed pondweed was 0 (Herbicidal rate of 5% or less (almost no effect)). Further, the “Herbicidal effect on B: Japanese bulrush (grade 0-5)” value in the experiment on Japanese bulrush is 1 (Herbicidal rate of 5% or more and less than 20%).

On to `C=CCSCc1ccc(-c2sc3ccc(F)cc3c2-c2c(O)c(C)nn(C)c2=O)cc1` [2-323], for which the “F: southern crabgrass, herbicidal effect (criteria 0-5)” value in the experiment with southern crabgrass (setting [6]) is 5 (Herbicidal rate of 90% or more (almost completely withered)). Besides, the “herbicidal effect on P: chickweed” value in the experiment on chickweed was 1 (Herbicidal rate of 5% or more and less than 20%). In addition, the “M: velvetleaf, herbicidal effect (criteria 0-5)” value in the experiment on velvetleaf (setting [6]) was 5 (Herbicidal rate of 90% or more (almost completely withered)). The “herbicidal effect on L: windgrass” value with windgrass is listed as 0 (Herbicidal rate of 5% or less (almost no effect)). In addition, in the experiment with green foxtail (setting [6]), the “G: green foxtail, herbicidal effect (criteria 0-5)” value is reported as 5 (Herbicidal rate of 90% or more (almost completely withered)). Moreover, the “herbicidal effect on D: Chinese sprangletop” value in the experiment on Chinese sprangletop (setting [7]) is 2 (Herbicidal rate of 20% or more and less than 40%). Moreover, in the experiment on lambsquarters [1] (setting [6]), the “O: lambsquarters, herbicidal effect (criteria 0-5)” value is 5 (Herbicidal rate of 90% or more (almost completely withered)). For the same compound, the “herbicidal effect on O: lambsquarters” value in the experiment on lambsquarters [2] was 3 (Herbicidal rate of 40% or more and less than 70%). Also, the “I: wild oat, herbicidal effect (criteria 0-5)” value in the experiment with wild oat (setting [6]) is 3 (Herbicidal rate of 40% or more and less than 70%). In the experiment on late watergrass, the “Herbicidal effect on A: late watergrass (grade 0-5)” value was 4 (Herbicidal rate of 70% or more and less than 90%). In addition, in the experiment with barnyard grass (setting [7]), the “herbicidal effect on H: barnyard grass” value is 5 (Herbicidal rate of 90% or more (almost completely withered)). In addition, the “J: blackgrass, herbicidal effect (criteria 0-5)” value in the experiment with blackgrass (setting [6]) is 4 (Herbicidal rate of 70% or more and less than 90%). In the experiment with Italian ryegrass [3], the “herbicidal effect on K: Italian ryegrass” value is 4 (Herbicidal rate of 70% or more and less than 90%). Moreover, the “K: Italian ryegrass, herbicidal effect (criteria 0-5)” value in the experiment on Italian ryegrass [4] (setting [6]) is 4 (Herbicidal rate of 70% or more and less than 90%). In the experiment on rice flat sedge (setting [7]), the “herbicidal effect on E: rice flat sedge” value is 3 (Herbicidal rate of 40% or more and less than 70%). Besides, the “Herbicidal effect on C: oval-leafed pondweed (grade 0-5)” value in the experiment with oval-leafed pondweed is 0 (Herbicidal rate of 5% or less (almost no effect)). Further, the “Herbicidal effect on B: Japanese bulrush (grade 0-5)” value in the experiment with Japanese bulrush was 2 (Herbicidal rate of 20% or more and less than 40%).
